Measured values reported in US6774263B1, “Pharmaceutically active compound and methods of use” (Cambridge Neuroscience, Inc., priority 1997, dated 2004).
Structures can show the parent of a compound that is named as a salt.

Assays:
rats [1] = test: Rat rotarod motor coordination test; assay type: in vivo
Protocol: The effects of the hydrochloride salt of (t)-N-(2-chloro-5-methylthiophenyl)-N′-(3-methylsulfinylphenyl)-N′-methylguanidine (compound (I)) on motor coordination were assessed using the rotarod test. Drug solutions were administered i.v. through the tail vein of test rats in a volume of 5.0 ml/kg at a rate of 1 ml/min. The percentage of animals in each treatment group that fell from the rotarod at each of the four time points tested is summarized in the following Table I. Control was 20% C.D. N in each of the Tables below specifies the number of animals in each test group.
The latency for falling from the rotarod was statistically analyzed using analysis of variance (ANOVA), and a Neumann Keuls post-hoc was applied when appropriate. […] In FIG. 1, “**” designates P<0.01 and “***” designates P<0.001.
(§1) The acetate salt of (−)-N-(2-chloro-5-methylthiophenyl)-N′-(3-methylsulfinylphenyl)-N′-methylguanidine was also tested in the same rotarod assay protocol as described in Part A above. Drug solutions were administered i.v. through the tail vein in a volume of 5 ml/kg at a rate of 1 ml/min. In Table II, Control (1) is 60 mM Acetate Buffer in 0.3M mannitol at 0.06 and 0.125 mg/kg doses and Control (2) is 60 mM Acetate Buffer in 0.3M mannitol at 0.25 and 0.5 mg/kg doses.
as §1, with “(+)-N-(2-chloro-5-methylthiophenyl)-N′-(3-methylsulfinylphenyl)-N′-methylguanidine” for “(−)-N-(2-chloro-5-methylthiophenyl)-N′-(3-methylsulfinylphenyl)-N′-methylguanidine”, “III,” for “II,”
The results for compounds of the invention can be compared to those obtained for MK-801, i.e. (+)-5-methyl-10,11-dihydro-5H-dibenzo[a,d]cyclohepten-5,10-imine maleate. In the rotarod test for MK-801, drug solutions were administered i.v. through the tail vein of each test rat in a volume of 5 ml/kg at a rate of 1 ml/min. The control was 0.9% saline solution.

rats [2] = test: Irwin general behavior screen; assay type: in vivo, rat; conditions: times in minutes
Source text: See S. Irwin, Animal and Clinical Pharmacologic Techniques in Drug Evaluation, pages 36-54 (Year Book Medical Publishers, Chicago), which details the protocol of the Irwin behavior screen.

rats [3] = test: Rat MCAO ischemia model; assay type: in vivo; conditions: in thirds at 10 min, 1 h and 2 h
Protocol: A. The hydrochloride salt of (±)-N-(2-chloro-5-methylthiophenyl)-N′-(3-methylsulfinylphenyl)-N′-methylguanidine (compound (I)) was tested in the rat MCAO ischemia model with % reduction in total lesion volume (mm^3) determined by the following protocol.
Rats were anaesthetized with isoflurane and focal ischemia was induced by directly ligating the main trunk of MCA using a bipolar electrocoagulor. Coronal sections (seven sections, 2.0 mm intervals) were collected and incubated in 2,3,5-triphenyltetrazolium chloride (TTC) solution for 15 minutes at 37° C., then fixed in 4% paraformaldehyde solution in the dark at 4° C. for at least 48 hours. Seven sections of each brain were photographed and analyzed. The areas that were not stained red with TTC were measured as infarction.
The test animals were treated with the test compound and control (mannitol) as follows. Ten minutes after the MCAO incident the test animals were administered (i.v. infusion/10 minutes) with one third of the total dose of the test compound (total doses specified below); 1 hour after that first dosing the test animals were given another one third of the total dose of the test compound; and then 2 hours after that first dosing the test animals were given another one third of the total dose of the test compound. Mannitol was administered to the control group at the first dosing only.
Sprague-Dawley rats with body weights of 270-320 grams were used in the study.

rat pups = test: Rat pup hypoxia-ischemia model; assay type: in vivo
Protocol: A. The hydrochloride salt of (±)-N-(2-chloro-5-methylthiophenyl)-N′-(3-methylsulfinylphenyl)-N′-methylguanidine was tested in the rat pup hypoxia-ischemia model with % reduction in total lesion volume determined at the specified test dose. A rat pup hypoxia-ischemia assay protocol of the following protocol was employed.
8 day-old rat pups weighing 17-23 grams were anaesthetized with isoflurane and the left common carotid artery ligated. Immediately prior to the hypoxia-ischemia (H-I) insult a test group of animals was injected intraperitoneally with 2 mg/kg, 5 mg/kg or 10 mg/kg of the test compound and a control group was treated with a corresponding dose of mannitol. Then, immediately after the H-I insult, the animals received a second equivalent dose, i.e. the test group of animals was injected intraperitoneally with 2 mg/kg (total 4 mg/kg administered in the two doses), 5 mg/kg (total 10 mg/kg administered in the two doses) or 10 mg/kg (total 20 mg/kg administered in the two doses) of the test compound and a control group was treated with a corresponding dose of mannitol. The animals were then allowed to recover for 1-2 hours and then exposed to 7.8% O2 in nitrogen for 78 minutes in an incubator at 36.5° C. The rat pups were returned to mothers immediately after the H-I insult. The animals were sacrificed two days after H-I insult, their brain was removed and cut into four 2 mm thick slices prior to staining with 2% 2,3,5-triphenyltetrazolium chloride (TTC) solution. The sections were then fixed with 4% paraformaldehyde solution in the dark at 4° C. for at least 48 hours. Four sections from each brain were imaged and analyzed using the IPLab system. The lesion area which was not stained red with TTC was measured as infarction.
B. The acetate salt of (+)-N-(2-chloro-5-methylthiophenyl)-N′-(3-methylsulfinylphenyl)-N′-methylguanidine was also tested in the rat pup hypoxia-ischemia model with % reduction in total lesion volume determined by the same protocol as specified in Part A above, except the rat pups were exposed to 7.8% O2 in nitrogen for 85 minutes.

[4] = cited from earlier work
mouse = conditions: in vivo; cited from earlier work
[5] = total dose 2.25 mg/kg i.v. infusion
[6] = total dose 4.5 mg/kg i.v. infusion, 4.5 mg/kg
[7] = total dose 9 mg/kg i.v. infusion, 9 mg/kg

SMILES: CSc1ccc(Cl)c(NC(=N)N(C)c2cccc([S+](C)[O-])c2)c1 (racemic) [compound (I), N-(2-chloro-5-methylthiophenyl)-N′-(3-methylsulfinylphenyl)-N′-methylguanidine]
- lethality of pre-testing doses (rats [1]; rat, in vivo): lethal
- behavioral effects observed in Irwin screen (rats [2]; 4 mg/kg i.v.): excitation (120-180′) sterotypies (sniffing 60-180′) fore-paw treading (120′) loss of traction (2 of 3, 120′)
- behavioral effects observed in Irwin screen (rats [2]; 16 mg/kg i.v.): excitation (30-180′) sterotypies (head-weaving to 180′) fore-paw treading (to 180′) loss of traction (to 180′) hypothermia
- % reduction in total lesion volume (rats [3]; [5]): 24%
- % reduction in total lesion volume (rats [3]; total dose 4.5 mg/kg i.v. infusion): 32%
- % reduction in total lesion volume (rats [3]; total dose 9 mg/kg i.v. infusion): 46%
- % reduction in total lesion volume (rat pups; i.p. total dose of 10 mg/kg, 7.8% O2 for 78 minutes): 60%
- % reduction in total lesion volume (rat pups; i.p. total dose of 20 mg/kg, 7.8% O2 for 78 minutes): 100%

SMILES: CSc1ccc(Cl)c(NC(=N)N(C)c2cccc([S+](C)[O-])c2)c1 (single isomer, unassigned; (+)) [compound (IB), (+)-N-(2-chloro-5-methylthiophenyl)-N′-(3-methylsulfinylphenyl)-N′-methylguanidine]
- latency for falling from the rotarod (falling times) (rats [1]; rat, in vivo): no statistically significant differences
- latency for falling from the rotarod vs control groups (rats [1]; rat, in vivo): significantly shorter latencies
- % reduction in total lesion volume (rats [3]; [5]): 23%
- % reduction in total lesion volume (rats [3]; [6]): 32%
- % reduction in total lesion volume (rats [3]; [7]): 34%
- % reduction in total lesion volume (rat pups; i.p. total dose of 10 mg/kg, 7.8% O2 for 85 minutes): 78%
- % reduction in total lesion volume (rat pups; i.p. total dose of 20 mg/kg, 7.8% O2 for 85 minutes): 93%

SMILES: CSc1ccc(Cl)c(NC(=N)N(C)c2cccc([S+](C)[O-])c2)c1 (single isomer, unassigned; (-)) [compound (IA), (−)-N-(2-chloro-5-methylthiophenyl)-N′-(3-methylsulfinylphenyl)-N′-methylguanidine]
- latency for falling from the rotarod (falling times) (rats [1]; rat, in vivo): no statistically significant differences
- latency for falling from the rotarod vs control groups (rats [1]; rat, in vivo): significantly shorter latencies
- % reduction in total lesion volume (rats [3]; [6]): 1%
- % reduction in total lesion volume (rats [3]; [7]): 22%

SMILES: C[C@]12N[C@H](Cc3ccccc31)c1ccccc12 [MK-801, (+)-5-methyl-10,11-dihydro-5H-dibenzo[a,d]cyclohepten-5,10-imine maleate]
- percentage of animals that fell from the rotarod (rats [1]; 0.01 mg/kg i.v., 15 min.): 38%
- percentage of animals that fell from the rotarod (rats [1]; 0.01 mg/kg i.v., 60 min.): 13%
- percentage of animals that fell from the rotarod (rats [1]; 0.01 mg/kg i.v., 120 min.): 25%
- percentage of animals that fell from the rotarod (rats [1]; 0.05 mg/kg i.v., 15 min.): 86%
- percentage of animals that fell from the rotarod (rats [1]; 0.05 mg/kg i.v., 60 min.): 57%
- percentage of animals that fell from the rotarod (rats [1]; 0.05 mg/kg i.v., 120 min.): 29%
- results in in vivo models of stroke [4]: good results
- activity in mouse audiogenic tests (mouse): good activity
